Measurements from US20120100097A1, “CELLULOSE SUPPORT CONTAINING D-MANNOSE DERIVATIVES” (priority 2009, published 2012).

system: Escherichia coli with type 1 pili (strain 382); assay type: cell-based; details: minimum inhibitive concentration (mg/ml) divided by that of D-mannose, x100; lower = stronger; free mannose derivatives before copolymerization
Excerpt: The conducted bacteriological test is an agglutination yeast test. In fact the bacteria Escherichia coli with type 1 pili, have the capacity to agglutinate yeasts. The agglutination may be prevented by mannose derivatives. The strain 382 of Escherichia coli obtained from National Bacteriological Laboratory of Stockholm, which expresses in a stable manner type 1 pili, is used. The expression of the pili can be enhanced by growing bacteria by way of three subcultures in a nutrient broth (NB, oxiod). After culture the bacteria are centrifuged and added as suspension in the same amount of phosphate buffered saline (PBS pH 7.2). A concentration of bacteria equal to 2-3.10^9 bacteria/ml is obtained. Baker's yeasts are added as suspension into PBS at a final concentration of 5.10^8 cells/ml. The various mannose derivatives are diluted from the initial concentration of 20 mg/ml maximum in two stages in PBS. Into 50 μl of each diluted sugar 50 μl of Escherichia coli is added and incubated at room temperature for 15 min to allow interaction. Finally 50 μl of yeast is added into each tube. After another 15 min. incubation at room temperature and one night at 4° C., agglutination, in other words interaction between bacteria and yeast, is evaluated.

SMILES | Inhibitive activity in %
CO[C@H]1O[C@H](CO)[C@@H](O)[C@H](O)[C@@H]1O [Methyl-α-D-Mannoside, reference compound] | 45%
OCCOCCO[C@H]1OC(CO)[C@@H](O)[C@H](O)C1O (stereo partly drawn) [Compound 4, 2-[(2-hydroxy-)ethoxy-]-ethyl α-D-Mannopyranoside] | 24%
OCC1O[C@H](OCc2ccccc2)C(O)[C@@H](O)[C@@H]1O (stereo partly drawn) [Compound 10, Benzyl-α-D-Mannopyranoside] | 24%
O=[N+]([O-])c1ccc(O[C@H]2O[C@H](CO)[C@@H](O)[C@H](O[C@H]3O[C@H](CO)[C@@H](O)[C@H](O)[C@@H]3O)[C@@H]2O)cc1 [Compound 15, p-Nitrophenyl 3-O-α-D-Mannopyranosyl-α-DMannopyranoside] | 0.70%
O=C[C@@H](O)[C@@H](O)[C@H](O)[C@H](O)CO [D-Mannose] | 100%
Nc1ccc(O[C@H]2O[C@H](CO)[C@@H](O)[C@H](O)[C@@H]2O)cc1 [Compound 12, p-Aminophenyl-α-D-Mannopyranoside] | 0.93%
COCCOCCO[C@H]1O[C@H](CO)[C@@H](O)[C@H](O)[C@@H]1O [Compound 7, 2-[(2-methoxy-)ethoxy-]-ethyl α-D-Mannopyranoside] | 24%
C=CCO[C@H]1OC(CO)[C@@H](O)C(O)C1O (stereo partly drawn) [Compound 8, Allyl-α-D-mannopyranoside] | 0.12%
CCS[C@H]1O[C@H](CO)[C@@H](O)[C@H](O)[C@@H]1O [Ethyl 1-thio-α-D-mannopyranoside, reference compound] | 18%

system: Escherichia coli with type 1 pili (strain 382); assay type: cell-based; details: agglutination test of the terpolymer directly on Escherichia coli strains; relative to D mannose = 100

SMILES | Inhibitative activity
O=C[C@@H](O)[C@@H](O)[C@H](O)[C@H](O)CO [D-Mannose] | 100%
